Data reported in patent publication US12129246B1, “Hydroquinazoline derivatives for the treatment of a disease or disorder” (Novartis AG, priority 2023, dated 2024).
Where two headings read alike, the source gives them in different places.

Tests used:
human NPR1 = target: T1, human NPR1 (Homo sapiens, UniProt P16066); assay: Cellular cGMP production assay, human NPR1 expressing CHO-K1 cells (CisBio HTRF); type: cell-based; details: for AC50: cGMP production, 30 min at 37° C., 12-point dose-response from 30 μM; for Human NPR1 Amax (% of ANP): maximum cGMP production as percentage of the maximum cGMP produced with ANP
T1 construct: host or cells: CHO-K1
T1 sequence (P16066 33-1061): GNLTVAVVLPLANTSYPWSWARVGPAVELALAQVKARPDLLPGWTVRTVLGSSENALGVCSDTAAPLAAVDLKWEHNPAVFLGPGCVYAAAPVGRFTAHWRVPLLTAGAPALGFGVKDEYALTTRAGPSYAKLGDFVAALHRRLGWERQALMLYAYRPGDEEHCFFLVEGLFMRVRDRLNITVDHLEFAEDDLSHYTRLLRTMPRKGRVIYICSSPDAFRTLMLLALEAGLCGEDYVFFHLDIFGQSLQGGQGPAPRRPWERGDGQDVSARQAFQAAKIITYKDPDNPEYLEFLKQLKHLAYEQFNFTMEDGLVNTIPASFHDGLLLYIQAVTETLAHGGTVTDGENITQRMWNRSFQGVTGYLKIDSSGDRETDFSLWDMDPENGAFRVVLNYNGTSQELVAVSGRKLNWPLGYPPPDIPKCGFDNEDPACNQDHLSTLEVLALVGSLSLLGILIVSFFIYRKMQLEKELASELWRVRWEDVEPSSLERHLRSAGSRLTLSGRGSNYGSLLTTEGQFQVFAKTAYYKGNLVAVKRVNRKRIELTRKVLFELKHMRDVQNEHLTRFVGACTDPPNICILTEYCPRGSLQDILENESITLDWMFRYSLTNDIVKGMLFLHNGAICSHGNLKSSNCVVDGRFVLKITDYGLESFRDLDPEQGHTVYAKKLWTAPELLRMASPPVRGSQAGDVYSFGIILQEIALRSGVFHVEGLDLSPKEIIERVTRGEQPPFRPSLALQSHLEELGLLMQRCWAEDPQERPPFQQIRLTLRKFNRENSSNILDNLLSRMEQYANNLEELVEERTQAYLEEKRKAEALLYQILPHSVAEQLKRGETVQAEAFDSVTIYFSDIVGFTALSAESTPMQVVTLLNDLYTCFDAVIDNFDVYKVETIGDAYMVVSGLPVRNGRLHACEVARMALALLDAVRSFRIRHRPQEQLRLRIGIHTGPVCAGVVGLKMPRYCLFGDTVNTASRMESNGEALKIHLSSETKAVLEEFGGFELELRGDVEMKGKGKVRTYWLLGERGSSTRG
In short: (§1)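 Cells receive IBMX (1 mM) assay buffer plus test compound over twelve threefold dilutions starting at 30 μM, and cGMP accumulates for 30 min at 37 °C. Lysates are then incubated one hour at room temperature with d2-labelled cGMP and cryptate-labelled antibody before time-resolved fluorescence reading.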

monkey NPR1 = monkey NPR1 (Macaca fascicularis, UniProt A0A7N9DBT9); assay: Cellular cGMP production assay, monkey NPR1 expressing CHO-K1 cells (CisBio HTRF); type: cell-based; details: for Monkey NPR1 Amax (% of ANP): maximum cGMP production as percentage of the maximum cGMP produced with ANP
Sequence of monkey NPR1 (A0A7N9DBT9 entry or part of it): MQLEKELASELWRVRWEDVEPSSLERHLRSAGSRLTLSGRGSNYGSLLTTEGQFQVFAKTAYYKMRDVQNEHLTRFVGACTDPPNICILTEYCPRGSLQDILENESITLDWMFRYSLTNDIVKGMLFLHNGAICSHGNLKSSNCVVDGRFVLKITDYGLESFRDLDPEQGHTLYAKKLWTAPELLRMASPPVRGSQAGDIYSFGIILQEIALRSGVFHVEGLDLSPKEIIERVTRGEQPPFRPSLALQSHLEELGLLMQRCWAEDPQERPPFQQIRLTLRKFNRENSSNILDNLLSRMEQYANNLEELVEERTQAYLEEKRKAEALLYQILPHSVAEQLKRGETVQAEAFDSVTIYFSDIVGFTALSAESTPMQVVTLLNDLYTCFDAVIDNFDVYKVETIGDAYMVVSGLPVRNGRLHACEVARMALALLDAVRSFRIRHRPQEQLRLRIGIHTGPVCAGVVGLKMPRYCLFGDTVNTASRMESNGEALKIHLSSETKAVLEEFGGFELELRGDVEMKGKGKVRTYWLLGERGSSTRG
In short: as §1

[1] = cGMP production, monkey NPR1 CHO-K1 cells, 30 min at 37° C., 12-point dose-response from 30 μM, read-out: Monkey NPR1 AC50

SMILES | AC50 (human NPR1) [nM] | Human NPR1 Amax (% of ANP) (human NPR1) | AC50 (monkey NPR1; [1]) [nM] | Monkey NPR1 Amax (% of ANP) (monkey NPR1; monkey NPR1 CHO-K1 cells) | AC50 (monkey NPR1) [nM]
C[C@H]1CCCN(C[C@H](Nc2nc(N(C)[C@H](C3CC3)[C@H]3CC[C@H](C(=O)O)CC3)nc3c2C[C@H](c2cccc(F)c2)CC3)c2cnn(C)c2)C1 [Compound 47, (1R,4r)-4-((R)-cyclopropyl(((R)-6-(3-fluorophenyl)-4-(((R)-1-(1-methyl-1H-pyrazol-4-yl)-2-((S)-3-methylpiperidin-1-yl)ethyl)amino)-5,6,7,8-tetrahydroquinazolin-2-yl)(methyl)amino)methyl)cyclohexane-1-carboxylic acid] | 180 | 101.280 % of ANP | 97 | 96.550 % of ANP | 
CC[C@H]([C@H]1CC[C@H](C(=O)O)CC1)N(C)c1nc2c(c(N[C@@H](CN3CCC[C@H](C)C3)c3cnn(C)c3)n1)C[C@H](c1ccccc1F)CC2 [Compound 48, (1R,4r)-4-((R)-1-(((R)-6-(2-fluorophenyl)-4-(((R)-1-(1-methyl-1H-pyrazol-4-yl)-2-((S)-3-methylpiperidin-1-yl)ethyl)amino)-5,6,7,8-tetrahydroquinazolin-2-yl)(methyl)amino)propyl)cyclohexane-1-carboxylic acid] | 183 | 106.036 % of ANP | 101 | 101.062 % of ANP | 
CC[C@@H](Nc1nc2c(c(N[C@@H](CN3C4CCCC3CC4)c3ccccc3)n1)C[C@H](c1ccccc1)CC2)[C@H]1CC[C@H](C(=O)O)CC1 [Compound 49, (1R,4r)-4-((1R)-1-(((6R)-4-(((1R)-2-(8-azabicyclo[3.2.1]octan-8-yl)-1-phenylethyl)amino)-6-phenyl-5,6,7,8-tetrahydroquinazolin-2-yl)amino)propyl)cyclohexane-1-carboxylic acid] | 185 | 104.186 % of ANP |  | 106.033 % of ANP | 138
CC[C@@H](Nc1nc2c(c(N[C@@H](CN3CCCCC3)c3cnn(CC)c3)n1)C[C@@H](c1cccc(F)c1)CC2)[C@H]1CC[C@H](C(=O)O)CC1 [Compound 50, (1R,4r)-4-((R)-1-(((S)-4-(((R)-1-(1-ethyl-1H-pyrazol-4-yl)-2-(piperidin-1-yl)ethyl)amino)-6-(3-fluorophenyl)-5,6,7,8-tetrahydroquinazolin-2-yl)amino)propyl)cyclohexane-1-carboxylic acid] | 187 | 93.357 % of ANP | 135 | 107.881 % of ANP | 
CC[C@@H](Nc1nc2c(c(N[C@@H](CN3CCCCCC3)c3cnn(C)c3)n1)C[C@H](c1ccccc1)CC2)[C@H]1CC[C@H](C(=O)O)CC1 [Compound 51, (1R,4r)-4-((R)-1-(((R)-4-(((R)-2-(azepan-1-yl)-1-(1-methyl-1H-pyrazol-4-yl)ethyl)amino)-6-phenyl-5,6,7,8-tetrahydroquinazolin-2-yl)amino)propyl)cyclohexane-1-carboxylic acid] | 187 | 106.105 % of ANP | 110 | 104.734 % of ANP | 
CC[C@H]([C@H]1CC[C@H](C(=O)O)CC1)N(C)c1nc2c(c(N[C@@H](CN3C4CCCC3CCC4)c3cnn(CC)c3)n1)C[C@@H](c1cccc(F)c1)CC2 [Compound 52, (1R,4r)-4-((R)-1-(((S)-4-(((R)-2-((1S,5S)-9-azabicyclo[3.3.1]nonan-9-yl)-1-(1-ethyl-1H-pyrazol-4-yl)ethyl)amino)-6-(3-fluorophenyl)-5,6,7,8-tetrahydroquinazolin-2-yl)(methyl)amino)propyl)cyclohexane-1-carboxylic acid] | 188 | 97.880 % of ANP |  | 106.496 % of ANP | 167
CC[C@H]([C@H]1CC[C@H](C(=O)O)CC1)N(C)c1nc2c(c(N[C@@H](CN3CCC[C@H](C)C3)c3ccc(=O)n(C)c3)n1)C[C@H](c1cccc(F)c1)CC2 [Compound 53, (1R,4r)-4-((R)-1-(((R)-6-(3-fluorophenyl)-4-(((R)-1-(1-methyl-6-oxo-1,6-dihydropyridin-3-yl)-2-((S)-3-methylpiperidin-1-yl)ethyl)amino)-5,6,7,8-tetrahydroquinazolin-2-yl)(methyl)amino)propyl)cyclohexane-1-carboxylic acid] | 190 | 101.185 % of ANP | 101 | 101.261 % of ANP | 
CC[C@H]([C@H]1CC[C@H](C(=O)O)CC1)N(C)c1nc2c(c(N[C@@H](CN3CCC[C@H](C(F)F)C3)c3cnn(C)c3)n1)C[C@H](c1cccc(F)c1)CC2 [Compound 54, (1R,4r)-4-((R)-1-(((R)-4-(((R)-2-((S)-3-(difluoromethyl)piperidin-1-yl)-1-(1-methyl-1H-pyrazol-4-yl)ethyl)amino)-6-(3-fluorophenyl)-5,6,7,8-tetrahydroquinazolin-2-yl)(methyl)amino)propyl)cyclohexane-1-carboxylic acid] | 194 | 95.979 % of ANP | 174 | 103.704 % of ANP | 
CC[C@@H](Nc1nc2c(c(N[C@@H](CN3CCCCC3)c3cnn(C)c3)n1)CN(c1cccc(F)c1)CC2)[C@H]1CC[C@H](C(=O)O)CC1 [Compound 55] | 194 | 92.712 % of ANP | 142 | 93.391 % of ANP | 
CC[C@@H](Nc1nc2c(c(N[C@@H](CN3CCCCC3)c3cnn(C)c3)n1)C[C@H](c1ccccc1)CC2)[C@H]1CC[C@H](C(=O)O)CC1 [Compound 56, (1R,4r)-4-((R)-1-(((R)-4-(((R)-1-(1-methyl-1H-pyrazol-4-yl)-2-(piperidin-1-yl)ethyl)amino)-6-phenyl-5,6,7,8-tetrahydroquinazolin-2-yl)amino)propyl)cyclohexane-1-carboxylic acid] | 198 | 102.955 % of ANP | 196 | 108.953 % of ANP | 
CC[C@H]([C@H]1CC[C@H](C(=O)O)CC1)N(C)c1nc2c(c(N[C@@H](CN3C4CCC3CC4)c3cnn(C)c3)n1)C[C@H](c1cccc(F)c1)CC2 [Compound 57, (1R,4r)-4-((R)-1-(((R)-4-(((R)-2-(7-azabicyclo[2.2.1]heptan-7-yl)-1-(1-methyl-1H-pyrazol-4-yl)ethyl)amino)-6-(3-fluorophenyl)-5,6,7,8-tetrahydroquinazolin-2-yl)(methyl)amino)propyl)cyclohexane-1-carboxylic acid] | 199 | 101.340 % of ANP |  | 103.000 % of ANP | 82
CC[C@@H](Nc1nc2c(c(N[C@@H](CN3CC4CCC3C4)c3cnn(C)c3)n1)C[C@H](c1ccccc1)CC2)[C@H]1CC[C@H](C(=O)O)CC1 (stereo partly drawn) [Compound 58, (1R,4r)-4-((1R)-1-(((6R)-4-(((1R)-2-(2-azabicyclo[2.2.1]heptan-2-yl)-1-(1-methyl-1H-pyrazol-4-yl)ethyl)amino)-6-phenyl-5,6,7,8-tetrahydroquinazolin-2-yl)amino)propyl)cyclohexane-1-carboxylic acid] | 201 | 99.715 % of ANP | 149 | 95.422 % of ANP | 
